In data set [1] the test system is cancer cells. Description: Potency in destroying cancer cells. The class given is cell-based.
For data set [2] the following is noted: cited from earlier work.
The conditions of data set [3]: cited from earlier work. This is another data set of the same source.
In data set [4] the test system is breast cancer xenograft. The note with it: intravenously injected, cited from earlier work.
For data set [5] the following is noted: in vivo.
The subject of data set [6] is MDA-MB-435S human breast cancer cells. Description: Cytotoxicity study, thiazolyl Blue (MTT) cell viability. Format: cell-based. The note with it: 9 hours incubation. The procedure: MDA-MB-435S cells were seeded into 12 well plates and grown in culture media containing Leibovitz's L-15 medium, 10% fetal bovine serum, 0.01 mg/mL bovine insulin, 100 IU/mL penicillin, and 100 μg/mL streptomycin. The cells were kept in tightly closed flasks at 37° C. in an incubator and grown to 70% confluence. Treatments with free Phor21-βCG(ala) were conducted at concentrations of 5, 20, and 100 μM. Treatments with silica-peptide nanoshells were conducted at corresponding amounts, equivalent to total Phor21-βCG(ala) concentrations of 5, 20, and 100 μM. On a separate plate silica nanoshells without peptide (15 mg/mL culture medium) were added to MDA-MB-435S cell cultures to determine their effect on cell viability. In all incubations, added saline was used as a control. Total incubation time was 9 hours at 37° C. Cell viability was measured in a thiazolyl Blue assay using [3-(4,5)-Dimethylthiazol-2-yl]-2,5 Diphenyltetrazolium Bromide—MTT. Cleavage of the tetrazolium ring by active mitochondria was used as a measure of the number of living cells. Statistical significance was determined using analysis of variance (ANOVA) and a two-tailed Student's t-test. Differences were considered significant at p<0.05.

Data set [7] concerns human endometrial cancer cell lines. As to conditions: cited from earlier work.
In data set [8] the test system is human ovarian cancer cell lines. The note with it: cited from earlier work.

Read-outs that look alike come from different tables or passages of the source. Where a SMILES comes first, the peptide text is derived from it. [ ]: non-standard residue; d: D form. dPhe(4-Cl) = N[C@H](Cc1ccc(Cl)cc1)C(=O)O; d2Nal = N[C@H](Cc1ccc2ccccc2c1)C(=O)O; dCit = NC(=O)NCCC[C@@H](N)C(=O)O; d3Pal = N[C@H](Cc1cccnc1)C(=O)O

As to “Phor21: membrane-disrupting lytic peptide, residues 1-21 of SEQ ID NO. 1 (KFAKFAKKFAKFAKKFAKFAK; Phor21-beta-CG(ala) Peptide)”, the “potency in destroying cancer cells versus Hecate or Phor14” value in data set [1] is listed as “more potent”.

Take `C[C@@H]1C[C@H]2[C@@H]3CCC4=CC(=O)C=C[C@]4(C)[C@@]3(F)[C@@H](O)C[C@]2(C)[C@@]1(O)C(=O)CO` [Dexamethasone]: the solubility in water entry in data set [2] was “insoluble”.

For the compound “luteinizing hormone releasing hormone [LHRH]”, the half-life in vivo in data set [3] was about 20 min.

Take “Phor21-βCG(ala): 35-residue conjugate peptide KFAKFAKKFAKFAKKFAKFAK-SYAVASAQAALAAR (SEQ ID NO. 1): lytic peptide Phor21 plus gonadotropin analog ligand βCG(ala) (KFAKFAKKFAKFAKKFAKFAKSYAVASAQAALAAR; Phor21-beta-CG(ala) Peptide)”: the “cell death in treated tumors” value in data set [4] (8 mg/kg body weight, p<0.01) is given as “lower”; in data set [4] (0.2 and 2 mg/kg body weight, p<0.05), “significantly higher”. Further, the “time after which free peptide is almost completely destroyed in circulation” value in data set [5] is listed as “about three”. Further, the “activity at 100 micromolar versus 20 micromolar” value in data set [6] was “significantly lower activity”. Further, the “toxicity against breast cancer cells” value in data set [6] (free peptide, 5, 20 and 100 μM, N=6) is given as “destroyed”.

Consider `CC(=O)N[C@H](Cc1ccc2ccccc2c1)C(=O)N[C@H](Cc1ccc(Cl)cc1)C(=O)N[C@H](Cc1cccnc1)C(=O)N[C@@H](CO)C(=O)N[C@@H](Cc1ccc(O)cc1)C(=O)N[C@H](CCCNC(N)=O)C(=O)N[C@@H](CC(C)C)C(=O)N[C@@H](CCCNC(=N)N)C(=O)N1CCC[C@H]1C(=O)N[C@H](C)C(N)=O` [Cetrorelix] (Ac-[d2Nal][dPhe(4-Cl)][d3Pal]SY[dCit]LRP[dA]-NH2), for which the in vitro proliferation entry in data set [7] and in data set [8] was “inhibited” in each case.

On to `CC(C)C[C@H](NC(=O)[C@@H](Cc1c[nH]c2ccccc12)NC(=O)[C@H](Cc1ccc(O)cc1)NC(=O)[C@H](CO)NC(=O)[C@H](Cc1c[nH]c2ccccc12)NC(=O)[C@H](Cc1c[nH]cn1)NC(=O)[C@@H]1CCC(=O)N1)C(=O)N[C@@H](CCCNC(=N)N)C(=O)N1CCC[C@H]1C(=O)NCC(N)=O` [triptorelin], for which the in vitro proliferation entry in data set [7] and in data set [8] was “inhibited” each time.

The record behind these values is patent US20090061006A1, “Layered Nanoparticles for Sustained Release of Small Molecules” (priority 2006, published 2009).
